From patent EP3381898A1, “SYMMETRICAL TRIS-ARYL-AMIDE DERIVATIVES AND THEIR USE AS ANTI-HEPARANASE” (priority 2017, dated 2018)

Columns and labels:
Type in all cases: cell-based, human
FGF-1 = experiment: Real-Time Quantitative PCR of mRNA gene expression in HT1080 cells; settings: 24 h, 2.5 uM, mean value
Experimental: (§1) To evaluate the effect of heparanase inhibitors on the tumor transcription of genes encoding for proangiogenic factors, such as FGF1/2, VEGF, MMP-9, HSPE-1, the relative mRNA levels were analyzed by quantitative Real-Time Quantitative PCR.
(§2) To perform the assay, HT1080 (human fibrosarcoma) cells were cultured in complete medium containing 10%FCS (fetal calf serum). Cells were plated in 24-well plates and treated at fixed concentration (i.e., highest non-toxic concentration) of test compounds. After 24 h, cells were detached, collected and total RNA extracted by RNeasy Mini Kit (QIAGEN). Following reverse transcription step, FGF1/2, VEGF, MMP-9, HSPE-1 mRNA levels, were quantified by qPCR using the advanced Universal SYBR Green Supermix (Bio Rad) and ABI PRISM 7900HT Thermal Cycler System (Perkin Elmer), according to the manufacturer's instructions. Appropriate no-RT and non-template controls were included in each 96-well PCR reaction, and dissociation analysis was performed at the end of each run to confirm the specificity of the reaction. Relative levels of RNA were calculated using the ddCt method. Standard curve and sample data were run in duplicate. In Table 4 a mean value is reported.

VEGF = experiment: as above; settings: 24 h, 2.5 uM, mean value
Experimental: as §1, §2

FGF-2 = experiment: as above; settings: 24 h, 2.5 uM, mean value
Experimental: as §1, §2

MMP-9 = experiment: as above; settings: 24 h, 2.5 uM, mean value
Experimental: as §1, §2

HPSE-1 = experiment: as above; settings: 24 h, 2.5 uM, mean value
Experimental: as §1, §2

[1] = system: genes encoding for proangiogenic factors; experiment: Real-Time Quantitative PCR in HT1080 cells, summary statement for all factors; settings: 2.5 µM, result in words
Experimental: as §1
as §2, with “reported. […]” for “reported.”

In the case of “2,2'-{carbonylbis[imino[5-(trifluoromethyl)-3,1-phenylene]carbonylimino(1-methyl-1H-pyrrole-4,2-diyl)carbonylimino-3,1-phenylene(1-oxoethane-2,1-diyl)imino]}diethanoic acid [Compound 12i]”, the “Gene Expression (% mRNA vs. control) FGF-1” value (FGF-1) is reported as ~ 53%, the “Gene Expression (% mRNA vs. control) VEGF” value (VEGF) is reported as ~ 55% and the “Gene Expression (% mRNA vs. control) FGF-2” value (FGF-2) is reported as ~ 82%. For the same substance, the “Gene Expression (% mRNA vs. control) MMP-9” value (MMP-9) was ~ 50%, the “Gene Expression (% mRNA vs. control) HPSE-1” value (HPSE-1) was ~ 63% and the “inhibition of genes expression encoding for proangiogenic factors” value [1] was “significant inhibition”.
